Data taken from patent US20060079566A1, “PDK-1/Akt signaling inhibitors” (priority 2003, published 2006).

Key:
CCRF-CEM = assay: NCI DTP screen (SRB), Leukemia; format: cell-based; conditions: Homo sapiens
Experimental: (§5) After 24 h, two plates of each cell line are fixed in situ with TCA, to represent a measurement of the cell population for each cell line at the time of drug addition (Tz). Experimental drugs are solubilized in dimethyl sulfoxide at 400-fold the desired final maximum test concentration and stored frozen prior to use. […]
(§6) Following drug addition, the plates are incubated for an additional 48 h at 37° C., 5% CO2, 95% air, and 100% relative humidity. […] Bound stain is subsequently solubilized with 10 mM trizma base, and the absorbance is read on an automated plate reader at a wavelength of 515 nm. […] Using the seven absorbance measurements [time zero, (Tz), control growth, (C), and test growth in the presence of drug at the five concentration levels (Ti)], the percentage growth is calculated at each of the drug concentrations levels. Percentage growth inhibition is calculated as: [(Ti−Tz)/(C−Tz)]×100 for concentrations for which Ti>/=Tz [(Ti−Tz)/Tz]×100 for concentrations for which Ti<Tz […]

RPMI-8226 = assay: NCI DTP screen (SRB), Leukemia; format: cell-based; conditions: Homo sapiens
Experimental: (§1) Screening of compounds 70 and 71 against several cancer cell lines The human tumor cell lines of the cancer screening panel are grown in RPMI 1640 medium containing 5% fetal bovine serum and 2 mM L-glutamine. For a typical screening experiment, cells are inoculated into 96 well microtiter plates in 100 μL at plating densities ranging from 5,000 to 40,000 cells/well depending on the doubling time of individual cell lines. After cell inoculation, the microtiter plates are incubated at 37° C., 5% CO2, 95% air and 100% relative humidity for 24 h prior to addition of experimental drugs.
(§2) After 24 h, two plates of each cell line are fixed in situ with TCA, to represent a measurement of the cell population for each cell line at the time of drug addition (Tz). Experimental drugs are solubilized in dimethyl sulfoxide at 400-fold the desired final maximum test concentration and stored frozen prior to use. At the time of drug addition, an aliquot of frozen concentrate is thawed and diluted to twice the desired final maximum test concentration with complete medium containing 50 μg/ml gentamicin. Additional four, 10-fold or ½ log serial dilutions are made to provide a total of five drug concentrations plus control. Aliquots of 100 μl of these different drug dilutions are added to the appropriate microtiter wells already containing 100 μl of medium, resulting in the required final drug concentrations.
(§3) Following drug addition, the plates are incubated for an additional 48 h at 37° C., 5% CO2, 95% air, and 100% relative humidity. For adherent cells, the assay is terminated by the addition of cold TCA. Cells are fixed in situ by the gentle addition of 50 μl of cold 50% (w/v) TCA (final concentration, 10% TCA) and incubated for 60 minutes at 4° C. The supernatant is discarded, and the plates are washed five times with tap water and air dried. Sulforhodamine B (SRB) solution (100 μl) at 0.4% (w/v) in 1% acetic acid is added to each well, and plates are incubated for 10 minutes at room temperature. After staining, unbound dye is removed by washing five times with 1% acetic acid and the plates are air dried. Bound stain is subsequently solubilized with 10 mM trizma base, and the absorbance is read on an automated plate reader at a wavelength of 515 nm. For suspension cells, the methodology is the same except that the assay is terminated by fixing settled cells at the bottom of the wells by gently adding 50 μl of 80% TCA (final concentration, 16% TCA). Using the seven absorbance measurements [time zero, (Tz), control growth, (C), and test growth in the presence of drug at the five concentration levels (Ti)], the percentage growth is calculated at each of the drug concentrations levels. Percentage growth inhibition is calculated as: [(Ti−Tz)/(C−Tz)]×100 for concentrations for which Ti>/=Tz [(Ti−Tz)/Tz]×100 for concentrations for which Ti<Tz
(§4) Three dose response parameters are calculated for each experimental agent. […] The drug concentration resulting in total growth inhibition (TGI) is calculated from Ti=Tz. […] Values are calculated for each of these three parameters if the level of activity is reached; however, if the effect is not reached or is exceeded, the value for that parameter is expressed as greater or less than the maximum or minimum concentration tested.

MOLT-4 = assay: NCI DTP screen (SRB), Leukemia; format: cell-based; conditions: Homo sapiens
Experimental: as §1, §2, §3, §4

SR = assay: NCI DTP screen (SRB), Leukemia; format: cell-based
Experimental: as §1, §2, §3, §4

K-562 = assay: NCI DTP screen (SRB), Leukemia; format: cell-based; conditions: Homo sapiens
Experimental: as §1, §2, §3, §4

[1] = Preliminary animal studies, daily oral administration; conditions: data not shown
MDA-MB-435 = assay: NCI DTP screen (SRB), Breast Cancer; format: cell-based; conditions: Homo sapiens
Experimental: as §1, §2, §3, §4

HS 57BT = assay: NCI DTP screen (SRB), Breast Cancer; format: cell-based
Experimental: as §1, §2, §3, §4

NCI/ADR-RES = assay: NCI DTP screen (SRB), Breast Cancer; format: cell-based; conditions: Homo sapiens
Experimental: as §1, §2, §3, §4

T-47D = assay: NCI DTP screen (SRB), Breast Cancer; format: cell-based
Experimental: as §1, §2, §3, §4

MDA-MB-231/ATCC = assay: NCI DTP screen (SRB), Breast Cancer; format: cell-based
Experimental: as §1, §2, §3, §4

HT29 = assay: NCI DTP screen (SRB), Colon Cancer; format: cell-based; conditions: Homo sapiens, HT-29
Experimental: as §5, §6

U251 = assay: NCI DTP screen (SRB), CNS Cancer; format: cell-based, human; conditions: Homo sapiens, U-251
Experimental: as §1, with “drugs. […]” for “drugs.”
Following drug addition, the plates are incubated for an additional 48 h at 37° C., 5% CO2, 95% air, and 100% relative humidity. […] Bound stain is subsequently solubilized with 10 mM trizma base, and the absorbance is read on an automated plate reader at a wavelength of 515 nm. […] Using the seven absorbance measurements [time zero, (Tz), control growth, (C), and test growth in the presence of drug at the five concentration levels (Ti)], the percentage growth is calculated at each of the drug concentrations levels. Percentage growth inhibition is calculated as: [(Ti−Tz)/(C−Tz)]×100 for concentrations for which Ti>/=Tz [(Ti−Tz)/Tz]×100 for concentrations for which Ti<Tz
Three dose response parameters are calculated for each experimental agent. […]

OVCAR-8 = assay: NCI DTP screen (SRB), Ovarian Cancer; format: cell-based; conditions: Homo sapiens
Experimental: as §1, §2, §3, §4

recombinant PDK-1 = molecular target: T1, recombinant PDK-1 (Homo sapiens, UniProt O15530); assay: PDK-1 kinase activity (Upstate kit, SGK-coupled, cell-free); format: biochemical
T1 construct: purchased Upstate (Lake Placid, N.Y.)
T1 sequence (O15530 1-556): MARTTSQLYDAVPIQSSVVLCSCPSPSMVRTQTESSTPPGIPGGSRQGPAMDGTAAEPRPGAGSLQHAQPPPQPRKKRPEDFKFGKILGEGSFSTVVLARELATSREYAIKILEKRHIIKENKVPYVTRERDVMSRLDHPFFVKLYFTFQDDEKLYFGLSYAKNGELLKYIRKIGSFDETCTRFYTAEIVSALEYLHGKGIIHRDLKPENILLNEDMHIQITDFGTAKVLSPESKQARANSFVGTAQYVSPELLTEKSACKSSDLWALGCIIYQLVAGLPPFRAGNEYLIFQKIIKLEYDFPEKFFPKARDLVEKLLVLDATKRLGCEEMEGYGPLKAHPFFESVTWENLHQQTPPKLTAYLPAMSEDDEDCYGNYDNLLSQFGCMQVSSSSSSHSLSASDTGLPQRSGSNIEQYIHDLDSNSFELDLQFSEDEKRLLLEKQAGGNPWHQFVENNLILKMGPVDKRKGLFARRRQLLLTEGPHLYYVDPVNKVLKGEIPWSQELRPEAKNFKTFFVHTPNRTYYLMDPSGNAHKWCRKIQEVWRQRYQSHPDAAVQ
Experimental: PDK-1 kinase activity This in vitro assay was performed using a PDK-1 kinase assay kit (Upstate, Lake Placid, N.Y.) according to the vendor's instructions. This cell-free assay is based on the ability of recombinant PDK-1, in the presence of DMSO vehicle or the test agent, to activate its downstream kinase serum- and glucocorticoid-regulated kinase (SGK.) which, in turn, phosphorylates the Akt/SGK-specific peptide substrate RPRAATF with [γ-^32]-ATP. […] The reported values represent the means of two independent determinations.

`NCC(=O)Nc1ccc(-n2nc(C(F)(F)F)cc2-c2ccc3c(ccc4ccccc43)c2)cc1` [Compound 70, 2-Amino-N-{4-[5-(2-phenanthrenyl)-3-(trifluoromethyl)-1H-pyrazol-1-yl]-phenyl}-acetamide] showed a GI50 (CCRF-CEM) of 0.387 µM, a CC50 (CCRF-CEM; read-out: LC50) greater than 100 µM and a GI50 (RPMI-8226) of 0.537 µM. It also gave a GI50 (MOLT-4; MOLT-4) of 0.636 µM, a CC50 (MOLT-4; MOLT-4, read-out: LC50) greater than 100 µM and a GI50 (SR; Homo sapiens) of 0.711 µM. The CC50 (SR; Homo sapiens, read-out: LC50) was greater than 100 µM, the “Mean Optical Densities” value (SR; Log10 Concentration −8.0) was 0.816 and the CC50 (K-562; K562, read-out: LC50) was greater than 100 µM. For the same molecule, the GI50 (K-562; K562, K-562) was 0.257 µM, the “toxicity to the animals” value ([1]; daily oral administration for one month) was “little toxicity” and the oral absorption ([1]; preliminary animal studies) was “can be orally absorbed”. The GI50 (MDA-MB-435) was 1.35 µM, the “Percent Growth” value (HS 57BT; HS 57BT, Log10 Concentration −5.0) was −34% and the “Percent Growth” value (HS 57BT; HS 57BT, Log10 Concentration −6.0) was 88%. For the same molecule, the CC50 (HS 57BT; Homo sapiens, read-out: LC50) was greater than 100 µM, the GI50 (HS 57BT; Homo sapiens, HS 57BT) was 2.05 µM and the GI50 (NCI/ADR-RES) was 0.954 µM. The CC50 (NCI/ADR-RES; read-out: LC50) was 8.28 µM, the GI50 (T-47D; Homo sapiens, T47D) was 1.82 µM and the “Percent Growth” value (T-47D; Log10 Concentration −4.0) was −64%. The CC50 (MDA-MB-231/ATCC; Homo sapiens, MDA-MB-231, read-out: LC50) was 6.67 µM, the GI50 (MDA-MB-231/ATCC; Homo sapiens, MDA-MB-231/ATCC) was 1.15 µM and the “Mean Optical Densities” value (MDA-MB-231/ATCC; MDA-MB-231/ATCC, Log10 Concentration −8.0) was 1.988. It also gave a GI50 (HT29) of 0.858 µM, a GI50 (U251) of 0.775 µM and a GI50 (OVCAR-8; OVCAR-8) of 1.02 µM. The CC50 (OVCAR-8; OVCAR-8, read-out: LC50) was greater than 100 µM, the IC50 (recombinant PDK-1; inhibiting recombinant PDK-1 kinase activity, read-out: IC50 PDK-1) was 5 µM and the “increase in PDK-1 inhibition potency over compound 59” value (recombinant PDK-1; ratio of IC50 values) was “two-”.
